Patent US20170107179A1 (Tetraphase Pharmaceuticals, Inc., priority 2010, published 2017)
Values after ≈ are worked out from the molar mass of the structure shown. Read-outs that look alike come from different tables or passages of the source.

System: Gram-negative and Gram-positive organisms (clinical isolates)
Assay: Broth microdilution MIC against clinical isolates (CLSI M7-A8), Table 9
Assay type: cell-based
[1] = Klebsiella aerogenes, Enterobacter aerogenes, n=30
[2] = Klebsiella pneumoniae, Klebsiella pneumonia, n=27
[3] = Salmonella species, n=30, read-out: MIC50
[4] = Stenotrophomonas maltophilia, n=29
[5] = Staphylococcus aureus, Staphylococcus aureus (MRSA PVL+), n=30, read-out: MIC50
[6] = Staphylococcus aureus, Staphylococcus aureus (MRSA PVL+), n=30, read-out: MIC90
[7] = Streptococcus intermedius, n=30
[8] = Acinetobacter lwoffii, n=29, read-out: MIC50
[9] = Acinetobacter lwoffii, n=29, read-out: MIC90
[10] = Streptococcus sanguis, n=18, read-out: MIC50
[11] = Streptococcus sanguis, n=18, read-out: MIC90
[12] = Staphylococcus aureus, Staphylococcus aureus MRSA (includes MRSA PVL+ group), n=105, read-out: MIC50
[13] = Staphylococcus aureus, Staphylococcus aureus MRSA (includes MRSA PVL+ group), n=105, read-out: MIC90

SMILES | MIC50 (Enterobacter cloacae, n=29) [µg/mL] | MIC90 (Enterobacter cloacae, n=29) [µg/mL] | MIC50 (Escherichia coli, n=40) [µg/mL] | MIC90 (Escherichia coli, n=40) [µg/mL] | MIC50 (Kiebsielia oxytoca, n=30) [µg/mL] | MIC90 (Kiebsielia oxytoca, n=30) [µg/mL] | MIC50 [1] [µg/mL] | MIC90 [1] [µg/mL] | MIC50 [2] [µg/mL] | MIC90 [2] [µg/mL] | MIC50 (Morganella morganii, n=30) [µg/mL] | MIC90 (Morganella morganii, n=30) [µg/mL] | MIC50 (Proteus vulgaris, n=29) [µg/mL] | MIC90 (Proteus vulgaris, n=29) [µg/mL] | MIC50 [3] [µg/mL] | MIC50 (Serratia marcescens, n=30) [µg/mL] | MIC90 (Serratia marcescens, n=30) [µg/mL] | MIC50 [4] [µg/mL] | MIC90 [4] [µg/mL] | MIC90 [6] [µg/mL] | further results
CC(C)(O/N=C(\C(=O)N[C@@H]1C(=O)N2C(C(=O)[O-])=C(C[n+]3ccccc3)CS[C@H]12)c1csc(N)n1)C(=O)O [Ceftazidime] | > 64 | > 64 | 64 (≈ 117 µM) | > 64 | ≤ 0.5 | ≤ 0.5 | ≤ 0.5 | 16 (≈ 29.3 µM) | > 64 | > 64 | ≤ 0.5 | 4 (≈ 7.32 µM) | ≤ 0.5 | > 64 | ≤ 0.5 | ≤ 0.5 | ≤ 0.5 | 8 (≈ 14.6 µM) | > 64 |  | MIC50 (Acinetobacter lwoffii, n=29): 1 µg/mL (≈ 1.83 µM); MIC90 (Acinetobacter lwoffii, n=29): 16 µg/mL (≈ 29.3 µM)
CCC[C@@H]1C[C@@H](C(=O)N[C@@H]([C@H]2O[C@H](SC)[C@H](O)[C@@H](O)[C@H]2O)[C@H](C)Cl)N(C)C1 [Clindamycin] |  |  |  |  |  |  |  |  |  |  |  |  |  |  |  |  |  |  |  | 0.12 (≈ 0.282 µM) | MIC50: 0.03 µg/mL (≈ 0.0706 µM); MIC90: 0.06 µg/mL (≈ 0.141 µM); MIC50 [5]: 0.06 µg/mL (≈ 0.141 µM); MIC50 (Streptococcus anginosus, n=20): ≤ 0.015 µg/mL; MIC90 (Streptococcus anginosus, n=20): 0.03 µg/mL (≈ 0.0706 µM); MIC50 [7]: ≤ 0.015 µg/mL; MIC90 [7]: 0.06 µg/mL (≈ 0.141 µM); MIC50 (Streptococcus mitis, n=29): 0.03 µg/mL (≈ 0.0706 µM); MIC90 (Streptococcus mitis, n=29): 0.06 µg/mL (≈ 0.141 µM)
C[C@@H](O)[C@H]1C(=O)N2C(C(=O)O)=C(S[C@@H]3CN[C@H](C(=O)Nc4cccc(C(=O)O)c4)C3)[C@H](C)[C@H]12 [Ertapenem] | ≤ 1 | > 8 | ≤ 1 | ≤ 1 | ≤ 1 | ≤ 1 | ≤ 1 | ≤ 1 | ≤ 1 | 8 (≈ 16.8 µM) | ≤ 1 | ≤ 1 | ≤ 1 | ≤ 1 | ≤ 1 | ≤ 1 | ≤ 1 | > 8 | > 8 | 8 (≈ 16.8 µM) | MIC50 [8]: ≤ 1 µg/mL; MIC90 [9]: 4 µg/mL (≈ 8.41 µM); MIC50 [5]: 4 µg/mL (≈ 8.41 µM); MIC50 (Streptococcus anginosus, n=20): 0.12 µg/mL (≈ 0.252 µM); MIC90 (Streptococcus anginosus, n=20): 0.25 µg/mL (≈ 0.526 µM); MIC50 [7]: 0.06 µg/mL (≈ 0.126 µM); MIC90 [7]: 0.5 µg/mL (≈ 1.05 µM); MIC50 (Streptococcus mitis, n=29): 0.25 µg/mL (≈ 0.526 µM); MIC90 (Streptococcus mitis, n=29): > 1 µg/mL; MIC50 [10]: 0.12 µg/mL (≈ 0.252 µM); MIC90 [11]: 0.5 µg/mL (≈ 1.05 µM)
C[C@H]1COc2c(N3CCN(C)CC3)c(F)cc3c(=O)c(C(=O)O)cn1c23 [Levofloxacin, levofloxacin] | 1 (≈ 2.77 µM) | > 4 | ≤ 0.25 | > 4 | ≤ 0.25 | 4 (≈ 11.1 µM) | ≤ 0.25 | ≤ 0.25 | 1 (≈ 2.77 µM) | > 4 | ≤ 0.25 | 4 (≈ 11.1 µM) | ≤ 0.25 | 1 (≈ 2.77 µM) | ≤ 0.25 | ≤ 0.25 | 2 (≈ 5.53 µM) | 0.5 (≈ 1.38 µM) | > 4 | > 2 | MIC50 [8]: ≤ 0.25 µg/mL; MIC90 [9]: ≤ 0.25 µg/mL; MIC90 (Salmonella species, n=30, read-out: MIC90): ≤ 0.25 µg/mL; MIC90 (Shigella species, n=30, read-out: MIC90): 0.5 µg/mL (≈ 1.38 µM); MIC50 [5]: 0.25 µg/mL (≈ 0.692 µM); MIC50 [12]: > 2 µg/mL; MIC90 [13]: > 2 µg/mL; MIC50 (Streptococcus anginosus, n=20): 0.5 µg/mL (≈ 1.38 µM); MIC90 (Streptococcus anginosus, n=20): 0.5 µg/mL (≈ 1.38 µM); MIC50 [7]: 1 µg/mL (≈ 2.77 µM); MIC90 [7]: 2 µg/mL (≈ 5.53 µM); MIC50 (Streptococcus mitis, n=29): 1 µg/mL (≈ 2.77 µM); MIC90 (Streptococcus mitis, n=29): 2 µg/mL (≈ 5.53 µM); MIC50 [10]: 0.5 µg/mL (≈ 1.38 µM); MIC90 [11]: 2 µg/mL (≈ 5.53 µM)
CN[C@H](CC(C)C)C(=O)N[C@H]1C(=O)N[C@@H](CC(N)=O)C(=O)N[C@H]2C(=O)N[C@H]3C(=O)N[C@H](C(=O)N[C@H](C(=O)O)c4cc(O)cc(O)c4-c4cc3ccc4O)[C@H](O)c3ccc(c(Cl)c3)Oc3cc2cc(c3O[C@@H]2O[C@H](CO)[C@@H](O)[C@H](O)[C@H]2O[C@H]2C[C@](C)(N)[C@H](O)[C@H](C)O2)Oc2ccc(cc2Cl)[C@H]1O [Vancomycin, vancomycin] |  |  |  |  |  |  |  |  |  |  |  |  |  |  |  |  |  |  |  | 1 (≈ 0.69 µM) | MIC50 (Staphylococcus aureus (MRSA PVL+), n=30, read-out: MIC50): 1 µg/mL (≈ 0.69 µM); MIC50 [12]: 1 µg/mL (≈ 0.69 µM); MIC90 [13]: 1 µg/mL (≈ 0.69 µM); MIC50 (Streptococcus anginosus, n=20, read-out: MIC50): 0.5 µg/mL (≈ 0.345 µM); MIC90 (Streptococcus anginosus, n=20, read-out: MIC90): 0.5 µg/mL (≈ 0.345 µM); MIC50 (Streptococcus intermedius, n=30, read-out: MIC50): 0.5 µg/mL (≈ 0.345 µM); MIC90 (Streptococcus intermedius, n=30, read-out: MIC90): 0.5 µg/mL (≈ 0.345 µM); MIC50 (Streptococcus mitis, n=29, read-out: MIC50): 0.5 µg/mL (≈ 0.345 µM); MIC90 (Streptococcus mitis, n=29, read-out: MIC90): 0.5 µg/mL (≈ 0.345 µM); MIC50 [10]: 0.5 µg/mL (≈ 0.345 µM); MIC90 [11]: 1 µg/mL (≈ 0.69 µM)
